Results: patent US20240041042A1, “1-(PYRIDYL)-5-AZINYLPYRAZOLE DERIVATIVES, AND THEIR USE FOR CONTROL OF UNDESIRED PLANT GROWTH” (Bayer Aktiengesellschaft, priority 2020, published 2024)
Read-outs that look alike come from different tables or passages of the source.

Tests used:
Type in all cases: in vivo
[1] = system: Abutilon theophrasti (ABUTH); assay: Pre-emergence herbicidal action against ABUTH; details: Dosage column 320 g/ha (title prints 3200 g/ha); scored visually after about 3 weeks; 100% = plants have died
Source text: Seeds of monocotyledonous and dicotyledonous weed plants and crop plants are placed in plastic or organic planting pots and covered with soil. The compounds of the invention, formulated in the form of wettable powders (WP) or as emulsion concentrates (EC), are then applied to the surface of the covering soil as aqueous suspension or emulsion with addition of 0.5% additive at a water application rate equivalent to 600 l/ha. After the treatment, the pots are placed in a greenhouse and kept under good growth conditions for the trial plants. After about 3 weeks, the effect of the preparations is scored visually in comparison with untreated controls as percentages. For example, 100% activity=the plants have died, 0% activity=like control plants.
Tables A1 to A13 below show the effects of selected compounds of the general formula (I) on various harmful plants and at an application rate corresponding to 320 g/ha or lower, which were obtained by the experimental procedure mentioned above. The appendices “a”, “b” and “c” give differentiation by dosage used with otherwise the same harmful plants tested.

[2] = system: Alopecurus myosuroides (ALOMY); assay: Pre-emergence herbicidal action against ALOMY; details: scored visually after about 3 weeks, 100% = plants have died
In short: (§1)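 Greenhouse pot trial: seeds sown, soil-covered, sprayed before emergence with compound in water (0.5% additive; 600 l/ha; ≤320 g/ha). Scoring visual, ~3 weeks, 0–100% scale vs untreated.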

[3] = system: Amaranthus retroflexus (AMARE); assay: Pre-emergence herbicidal action against AMARE; details: visual scoring after about 3 weeks vs untreated controls
In short: as §1

Avena fatua (AVEFA) [4] = assay: Pre-emergence herbicidal action against AVEFA; details: visual scoring after about 3 weeks vs untreated controls
In short: as §1

[5] = system: Echinochloa crus-galli (ECHCG); assay: Pre-emergence herbicidal action against ECHCG
In short: as §1

Lolium rigidum (LOLRI) [6] = assay: Pre-emergence herbicidal action against LOLRI
In short: as §1

[7] = system: Pharbitis purpurea (PHBPU); assay: Pre-emergence herbicidal action against PHBPU
In short: as §1

[8] = system: Polygonum convolvulus (POLCO); assay: Pre-emergence herbicidal action against POLCO
In short: as §1

[9] = system: Verconica persica (VERPE); assay: Pre-emergence herbicidal action against VERPE
In short: as §1

Viola tricolor (VIOTR) [10] = assay: Pre-emergence herbicidal action against VIOTR
In short: as §1

[11] = system: Abutilon theophrasti (ABUTH); assay: Post-emergence herbicidal action against ABUTH; details: 320 g/ha, visual rating about 3 weeks after treatment vs untreated controls (100% = plants have died, 0% = like control plants)
In short: (§2)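 Post-emergence greenhouse spray, one-leaf stage, 600 l/ha water plus 0.5% additive; WP or EC formulations; application rates 320 g/ha or lower. Visual % damage vs untreated controls at ~3 weeks.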

[12] = system: Alopecurus myosuroides (ALOMY); assay: Post-emergence herbicidal action against ALOMY; details: visual rating about 3 weeks after treatment vs untreated controls (100% = plants have died, 0% = like control plants)
In short: as §2

[13] = system: Amaranthus retroflexus (AMARE); assay: Post-emergence herbicidal action against AMARE
In short: as §2

Avena fatua (AVEFA) [14] = assay: Post-emergence herbicidal action against AVEFA; details: visual rating about 3 weeks after treatment
In short: as §2

[15] = system: Echinochloa crus-galli (ECHCG); assay: Post-emergence herbicidal action against ECHCG
In short: as §2

Lolium rigidum (LOLRI) [16] = assay: Post-emergence herbicidal action against LOLRI
In short: as §2

[17] = system: Pharbitis purpurea (PHBPU); assay: Post-emergence herbicidal action against PHBPU
In short: as §2

[18] = system: Polygonum convolvulus (POLCO); assay: Post-emergence herbicidal action against POLCO; details: dosage 320 g/ha
In short: as §2

Setaria viridis (SETVI) [19] = assay: Post-emergence herbicidal action against SETVI
In short: as §2

[20] = system: Verconica persica (VERPE); assay: Post-emergence herbicidal action against VERPE
In short: as §2

Viola tricolor (VIOTR) [21] = assay: Post-emergence herbicidal action against VIOTR
In short: as §2

Oryza sativa (ORYSA) = details: crop plant compatibility, effect in comparison to untreated controls
In short: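 Effects were read visually as % versus untreated controls (0% = no effect, 100% = death) about 3 weeks post-treatment. Application was a post-emergence spray at the one-leaf stage of WP/EC formulations with 0.5% additive at 600 l/ha. Different dosages are denoted a, b and c.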

[22] = system: Matricaria inodora (MATIN); assay: Pre-emergence herbicidal action against MATIN
In short: as §1

Setaria viridis (SETVI) [23] = assay: Pre-emergence herbicidal action against SETVI
In short: as §1

SMILES	Pre-emergence action against ABUTH [1]	Pre-emergence action against ALOMY ([2]; 320 g/ha)	Pre-emergence action against AMARE in % ([3]; 80 g/ha)	Pre-emergence action against AMARE in % ([3]; 320 g/ha)	Pre-emergence action against AVEFA in % (Avena fatua (AVEFA) [4]; 320 g/ha)	Pre-emergence action against ECHCG in % ([5]; dosage 320 g/ha)	Pre-emergence action against LOLRI in % (Lolium rigidum (LOLRI) [6]; dosage 80 g/ha)	Pre-emergence action against LOLRI in % (Lolium rigidum (LOLRI) [6]; dosage 320 g/ha)	Pre-emergence action against PHBPU in % ([7]; dosage 320 g/ha)	Pre-emergence action against POLCO in % ([8]; dosage 80 g/ha)	Pre-emergence action against POLCO in % ([8]; dosage 320 g/ha)	Pre-emergence action against VERPE in % ([9]; dosage 320 g/ha)	Pre-emergence action against VIOTR in % (Viola tricolor (VIOTR) [10]; 320 g/ha, Viola tricolor)	Pre-emergence action against VIOTR in % (Viola tricolor (VIOTR) [10]; dosage 80 g/ha)	Post-emergence action against ABUTH in % [11]	Post-emergence action against ALOMY in % ([12]; 320 g/ha)	Post-emergence action against AVEFA in % (Avena fatua (AVEFA) [14]; 320 g/ha)	Post-emergence action against ECHCG in % ([15]; dosage 80 g/ha)	Post-emergence action against ECHCG in % ([15]; dosage 320 g/ha)	Post-emergence action against LOLRI in % (Lolium rigidum (LOLRI) [16]; dosage 80 g/ha)	also measured
COC(=O)CCOC(=O)[C@@H](C)Oc1nn(-c2ccccn2)c(-c2ccc(F)nc2)c1Cl [Example I-340]	80%	100%	90%	100%	90%	100%	100%	100%	80%	80%	90%	100%	100%	100%	80%	100%	90%	80%	90%	90%	Pre-emergence action against AVEFA in % (Avena fatua (AVEFA) [4]; 80 g/ha): 80%; Post-emergence action against ALOMY in % ([12]; 80 g/ha): 90%; Post-emergence action against AMARE in % ([13]; 80 g/ha, visual rating about 3 weeks after treatment vs untreated controls (100% = plants have died, 0% = like control plants)): 80%; Post-emergence action against AMARE in % ([13]; 320 g/ha, visual rating about 3 weeks after treatment): 90%; Post-emergence action against AVEFA in % (Avena fatua (AVEFA) [14]; 80 g/ha): 90%; Post-emergence action against LOLRI in % (Lolium rigidum (LOLRI) [16]; dosage 320 g/ha): 90%; Post-emergence action against PHBPU in % ([17]; dosage 80 g/ha): 90%; Post-emergence action against PHBPU in % ([17]; dosage 320 g/ha): 90%; Post-emergence action against POLCO in % [18]: 90%; Post-emergence action against SETVI in % (Setaria viridis (SETVI) [19]; dosage 80 g/ha): 80%; Post-emergence action against SETVI in % (Setaria viridis (SETVI) [19]; dosage 320 g/ha): 90%; Post-emergence action against VERPE in % ([20]; 320 g/ha, VERPE): 90%; Post-emergence action against VERPE in % ([20]; dosage 80 g/ha): 80%; Post-emergence action against VIOTR in % (Viola tricolor (VIOTR) [21]; 80 g/ha): 90%; Post-emergence action against VIOTR in % (Viola tricolor (VIOTR) [21]; 320 g/ha): 90%; Post-emergence action against ORYSA in % (Oryza sativa (ORYSA); 80 g/ha): 0%; Post-emergence action against ORYSA in % (Oryza sativa (ORYSA); 320 g/ha): 0%
CCOC(=O)[C@@H](C)Oc1nn(-c2nc(F)ccc2F)c(-c2cncc(F)c2)c1Br [Example I-388]	90%	100%	90%	100%	90%	100%	80%	100%	90%	90%	90%	100%	100%	100%	80%	80%	80%	90%	90%	80%	Pre-emergence action against ALOMY ([2]; 80 g/ha): 80%; Pre-emergence action against ECHCG in % ([5]; dosage 80 g/ha): 80%; Pre-emergence action against MATIN in % ([22]; dosage 80 g/ha): 90%; Pre-emergence action against MATIN in % ([22]; dosage 320 g/ha): 90%; Pre-emergence action against PHBPU in % ([7]; dosage 80 g/ha): 90%; Pre-emergence action against SETVI in % (Setaria viridis (SETVI) [23]; dosage 80 g/ha): 90%; Pre-emergence action against SETVI in % (Setaria viridis (SETVI) [23]; dosage 320 g/ha): 100%; Pre-emergence action against VERPE in % ([9]; dosage 80 g/ha): 90%; Post-emergence action against LOLRI in % (Lolium rigidum (LOLRI) [16]; dosage 320 g/ha): 80%; Post-emergence action against PHBPU in % ([17]; dosage 80 g/ha): 80%; Post-emergence action against PHBPU in % ([17]; dosage 320 g/ha): 100%; Post-emergence action against SETVI in % (Setaria viridis (SETVI) [19]; dosage 80 g/ha): 90%; Post-emergence action against SETVI in % (Setaria viridis (SETVI) [19]; dosage 320 g/ha): 90%; Post-emergence action against VERPE in % ([20]; 320 g/ha, VERPE): 80%; Post-emergence action against VERPE in % ([20]; dosage 80 g/ha): 80%; Post-emergence action against VIOTR in % (Viola tricolor (VIOTR) [21]; 320 g/ha): 80%
